Each structure is given as a SMILES string.

Sequence of SOS1:KRAS (G12C) interaction (Q07889 564-1049, stated change not applied): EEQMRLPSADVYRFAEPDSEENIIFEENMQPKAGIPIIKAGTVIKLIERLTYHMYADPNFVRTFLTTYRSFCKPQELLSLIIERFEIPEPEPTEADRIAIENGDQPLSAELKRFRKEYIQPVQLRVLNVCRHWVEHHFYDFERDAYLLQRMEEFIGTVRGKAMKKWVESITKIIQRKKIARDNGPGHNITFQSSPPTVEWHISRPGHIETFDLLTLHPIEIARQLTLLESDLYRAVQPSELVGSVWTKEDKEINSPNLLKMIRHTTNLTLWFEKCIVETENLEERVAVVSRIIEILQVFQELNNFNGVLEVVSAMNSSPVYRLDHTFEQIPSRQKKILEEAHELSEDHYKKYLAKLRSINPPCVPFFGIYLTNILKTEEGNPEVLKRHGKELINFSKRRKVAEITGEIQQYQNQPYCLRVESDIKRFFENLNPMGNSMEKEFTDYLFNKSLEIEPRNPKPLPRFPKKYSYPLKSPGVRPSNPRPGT

The target in this assay is SOS1:KRAS (G12C) interaction (Homo sapiens (Human), UniProt Q07889). Description: SOS1 KRas(G12C) FRET Assay. It counts as binding. As to conditions: 0.5 nM His10-SOS1 (res. 564-1049), 2.5 nM GST-KRAS G12C (res. 1-169), 2 hrs at RT. Here is the method:
Inhibition of the SOS 1:KRAS interaction was measured using purified GST-tagged KRAS (res. 1-169, G12C, purified based on Hillig, et al., Proc Natl Acad Sci USA (2019); 116(7):2551-2560) and recombinant His10-SOS1 (res. 564-1049; purified based on Hillig, et al.). The final assay was performed at 20 uL with 0.5 nM SOS1 protein and 2.5 nM KRAS protein in a buffer of PBS, 0.1% BSA, 5 mM MgCh, 0.0025% Igepal, 100 mM KF, 5 mM DTT in a white 384 square well OptiPlate (PerkinElmer, Cat. 6007290). A 2x KRAS working solution was prepared in an assay buffer containing 5 nM GST-KRAS G12C and 2 nM anti-GST-Eu(K) (Cisbio, Cat. 61GSTKLA) and pre-incubated for 15 minutes at 25° C. […] The final DMSO concentration is 0.5%. Plates were incubated at RT for 2 hrs before the FRET signal was measured using Envision at emission 665 nm and 615 nm. FRET signal was converted to percentage of protein-protein interaction using the following equation:
• C: signal with compound treatment • P: signal for positive control (DMSO) • N: signal for negative control (no SOS1 added)
IC50 and Hill coefficients were obtained using Graph Pad Prism (Graph Pad software, Inc, USA) with non-linear regression analysis.
Molecule `C[C@@H](NC(=O)c1cn([C@]2(C)CCN(C(=O)C3(F)CC3)C2)c(=O)cc1NC1CCN(C)CC1)c1cccc(C(F)F)c1F` [Example 269, N-((R)-1-(3-(difluoromethyl)-2-fluorophenyl)ethyl)-1-((R)-1-(1-fluorocyclopropane-1-carbonyl)-3-methylpyrrolidin-3-yl)-4-((1-methylpiperidin-4-yl)amino)-6-oxo-1,6-dihydropyridine-3-carboxamide] displayed an IC50 of 1.21 nM.

`C[C@@H](NC(=O)c1cn([C@H]2C[C@@H](C3CC3)C2)c(=O)cc1N[C@H]1[C@@H]2CN(C)C[C@@H]21)c1cccc(C(F)F)c1F` (single isomer, unassigned) [Example 248] showed a half-inhibitory concentration (IC50) of 24.1 nM.

The molecule `Cc1c([C@@H](C)NC(=O)c2cn(C3CCOCC3)c(=O)cc2NC2CCNCC2)cccc1C(F)(F)F` [Example 282, (R)-N-(1-(2-methyl-3-(trifluoromethyl)phenyl)ethyl)-6-oxo-4-(piperidin-4-ylamino)-1-(tetrahydro-2H-pyran-4-yl)-1,6-dihydropyridine-3-carboxamide] returned an IC50 of 34.4 nM. For `C[C@@H](NC(=O)c1cn(C2CCC2)c(=O)cc1N[C@H]1[C@@H]2CN(C)C[C@@H]21)c1cccc(C(F)(F)F)c1F` [Example 207, 1-cyclobutyl-N-((R)-1-(2-fluoro-3-(trifluoromethyl)phenyl)ethyl)-4-(((1R,5S,6s)-3-methyl-3-azabicyclo[3.1.0]hexan-6-yl)amino)-6-oxo-1,6-dihydropyridine-3-carboxamide] the value was 9.3 nM. For `C[C@@H]1C[C@H]1n1cc(C(=O)N[C@H](C)c2cccc(C(F)F)c2F)c(N[C@H]2[C@@H]3CN(C)C[C@@H]32)cc1=O` (single isomer, unassigned) [Example 272] the value was 29.1 nM; for `C[C@@H](NC(=O)c1cn(C2(C(F)F)CC2)c(=O)cc1N[C@@H]1CCN(C)C2(CC2)C1)c1cccc(C(F)F)c1F` (single isomer, unassigned) [Example 312], 35.6 nM. For `C[C@@H](NC(=O)c1cn(C2(C)CCN(C(=O)C3(F)CC3)C2)c(=O)cc1NC1CCN(C)CC1)c1cccc(C(F)F)c1F` (stereo partly drawn) [Example 267, N-((R)-1-(3-(difluoromethyl)-2-fluorophenyl)ethyl)-1-(1-(1-fluorocyclopropane-1-carbonyl)-3-methylpyrrolidin-3-yl)-4-((1-methylpiperidin-4-yl)amino)-6-oxo-1,6-dihydropyridine-3-carboxamide] the value was 2.44 nM; for `C[C@@H](NC(=O)c1cn([C@H]2[C@H](C)C2(F)F)c(=O)cc1N[C@H]1[C@@H]2CN(C)C[C@@H]21)c1cccc(C(C)(F)F)c1F` (single isomer, unassigned) [Example 196], 43.2 nM.

On to `C[C@@H](NC(=O)c1cn(C23CC(C2)C3)c(=O)cc1N[C@H]1[C@@H]2CN(C)C[C@@H]21)c1cccc(S(F)(F)(F)(F)F)c1` [Example 161, 1-(bicyclo[1.1.1]pentan-1-yl)-4-(((1R,5S,6s)-3-methyl-3-azabicyclo[3 .1.0]hexan-6-yl)amino)-6-oxo-N-((R)-1-(3-(pentafluoro-16-sulfaneyl)phenyl)ethyl)-1,6-dihydropyridine-3-carboxamide], for which it took 24 nM to reach half-maximal inhibition (IC50). For `C[C@H](NC(=O)c1cn(C2(C(F)F)CC2)c(=O)cc1N[C@H]1[C@@H]2CN(C)C[C@@H]21)c1cccc(C(F)(F)c2ccncc2)c1F` [Example 175, N-((S)-1-(3-(difluoro(pyridin-4-yl)methyl)-2-fluorophenyl)ethyl)-1-(1-(difluoromethyl)cyclopropyl)-4-(((1R,5S,6s)-3-methyl-3-azabicyclo[3.1.0]hexan-6-yl)amino)-6-oxo-1,6-dihydropyridine-3-carboxamide], half-maximal inhibition (IC50) required 13 nM.

Take `C[C@@H](NC(=O)c1cn([C@@H]2CCOC[C@H]2F)c(=O)cc1N[C@@H]1[C@@H]2C[C@H]1CN(C)C2)c1cccc(C(F)F)c1F` [Example 244, N-((R)-1-(3-(difluoromethyl)-2-fluorophenyl)ethyl)-1-((3S,4R)-3-fluorotetrahydro-2H-pyran-4-yl)-4-(((1R5S,6s)-3-methyl-3-azabicyclo[3.1.1]heptan-6-yl)amino)-6-oxo-1,6-dihydropyridine-3-carboxamide]: the IC50 was 18.1 nM. For `C[C@@H](NC(=O)c1cn([C@H]2CC2(F)F)c(=O)cc1N[C@H]1[C@@H]2CN(C)C[C@@H]21)c1cccc(C(C)(F)F)c1F` (single isomer, unassigned) [Example 202] the value was 19.5 nM; for `C[C@@H](NC(=O)c1cn(C23CC(C2)C3)c(=O)cc1N[C@@H]1[C@@H]2C[C@H]1CN(C)C2)c1cccc(C(F)F)c1F` [Example 208, 1-(bicyclo[1.1.1]pentan-1-yl)-N-((R)-1-(3-(difluoromethyl)-2-fluorophenyl)ethyl)-4-(((1R,5S,6s)-3-methyl-3-azabicyclo[3.1.1]heptan-6-yl)amino)-6-oxo-1,6-dihydropyridine-3-carboxamide], 13 nM. For `C[C@@H](NC(=O)c1cn([C@H]2CC23CC3)c(=O)cc1N[C@H]1[C@@H]2CN(C)C[C@@H]21)c1cccc(C(F)(F)F)c1F` (single isomer, unassigned) [Example 219] the value was 26.9 nM. Molecule `CC(NC(=O)c1cn(C2(C(F)F)CC2)c(=O)cc1N[C@H]1[C@@H]2CN(C)C[C@@H]21)c1cccc(C(F)(F)c2cocn2)c1F` (stereo partly drawn) [Example 176, N-(1-(3-(difluoro(oxazol-4-yl)methyl)-2-fluorophenyl)ethyl)-1-(1-(difluoromethyl)cyclopropyl)-4-(((1R,5S,6s)-3-methyl-3-azabicyclo[3.1.0]hexan-6-yl)amino)-6-oxo-1,6-dihydropyridine-3-carboxamide] had an IC50 of 109 nM.

As for `C[C@@H](NC(=O)c1cn(C2CCC2)c(=O)cc1N[C@H]1[C@@H]2CC[C@H]1CN(C)C2)c1cccc(C(F)F)c1F` (single isomer, unassigned) [Example 214], the IC50 was 10.6 nM. `C[C@@H](NC(=O)c1cn(C2CC(F)(F)C2)c(=O)cc1N[C@H]1[C@@H]2CC[C@H]1CN(C)C2)c1cccc(C(F)F)c1F` (single isomer, unassigned) [Example 258]: 76.3 nM corresponded to half-maximal inhibition (IC50). For `C[C@@H](NC(=O)c1cn(C2CCOCC2)c(=O)cc1NC1CCN(C)CC1)c1cccc(C(F)F)c1F` [Example 41, (R)-N-(1-(3-(difluoromethyl)-2-fluorophenyl)ethyl)-4-((1-methylpiperidin-4-yl)amino)-6-oxo-1-(tetrahydro-2H-pyran-4-yl)-1,6-dihydropyridine-3-carboxamide] the value was 7.8 nM; for `C[C@@H](NC(=O)c1cn(C23CC(C2)C3)c(=O)cc1N[C@@H]1C[C@@H]2CN(C)C[C@@H]2C1)c1cccc(C(F)F)c1F` [Example 216, 1-(bicyclo[1.1.1]pentan-1-yl)-N-((R)-1-(3-(difluoromethyl)-2-fluorophenyl)ethyl)-4-(((3aR,5r,6aS)-2-methyloctahydrocyclopenta[c]pyrrol-5-yl)amino)-6-oxo-1,6-dihydropyridine-3-carboxamide], 19.1 nM; for `C[C@@H](NC(=O)c1cn(C23CC(C2)C3)c(=O)cc1N[C@@H]1CCN(C)C[C@@H]1F)c1cccc(C(F)F)c1F` (single isomer, unassigned) [Example 204], 3.61 nM. As for `Cc1c([C@@H](C)NC(=O)c2cn(C3CCOCC3)c(=O)cc2NC[C@H]2CC[C@@H](N(C)C)CC2)cccc1C(F)(F)F` [Example 302, 4-((((1s,4S)-4-(dimethylamino)cyclohexyl)methyl)amino)-N-((R)-1-(2-methyl-3-(trifluoromethyl)phenyl)ethyl)-6-oxo-1-(tetrahydro-2H-pyran-4-yl)-1,6-dihydropyridine-3-carboxamide], the half-maximal inhibitory concentration (IC50) was 31.5 nM. For `C[C@@H](NC(=O)c1cn(C2(C(F)F)CC2)c(=O)cc1NC1CCN(C2CC2)CC1)c1cccc(C(F)F)c1F` [Example 62, (R)-4-((1-cyclopropylpiperidin-4-yl)amino)-N-(1-(3-(difluoromethyl)-2-fluorophenyl)ethyl)-1-(1-(difluoromethyl)cyclopropyl)-6-oxo-1,6-dihydropyridine-3-carboxamide] the value was 20.1 nM; for `C[C@@H](NC(=O)c1cn(C23COC(C)(C2)C3)c(=O)cc1NC1CCN(C)CC1)c1cccc(C(F)F)c1F` [Example 220, (R)-N-(1-(3-(difluoromethyl)-2-fluorophenyl)ethyl)-1-(1-methyl-2-oxabicyclo[2.1. 1]hexan-4-yl)-4-((1-methylpiperidin-4-yl)amino)-6-oxo-1,6-dihydropyridine-3-carboxamide], 26.8 nM. For `C[C@@H](NC(=O)c1cn(C23CC(C2)C3)c(=O)cc1N[C@H]1[C@@H]2CN(C)C[C@@H]21)c1cccc(OC(F)F)c1Cl` [Example 180, 1-(bicyclo[1.1.1]pentan-1-yl)-N-((R)-1-(2-chloro-3-(difluoromethoxy)phenyl)ethyl)-4-(((1R,5S,6s)-3-methyl-3-azabicyclo[3.1.0]hexan-6-yl)amino)-6-oxo-1,6-dihydropyridine-3-carboxamide] the value was 113 nM.

Turning to `Cc1c(C#N)cccc1[C@@H](C)NC(=O)c1cn([C@@H]2[C@@H](C)C2(F)F)c(=O)cc1N[C@H]1[C@@H]2CN(C)C[C@@H]21` (single isomer, unassigned) [Example 193], it took 151 nM to reach half-maximal inhibition (IC50).

As usually defined, the IC50 is the concentration that inhibits the measured activity by half. Low readings indicate greater potency, high ones weaker potency.

The values are drawn from patent publication US20230348424A1, “HETEROCYCLIC COMPOUNDS AND METHODS OF USE” (Schrödinger, Inc., priority 2022, published 2023).
